Assay results as given in ChEMBL document CHEMBL1201861, “Genomics of Drug Sensitity in Cancer screening data, Wellcome Trust Sanger Institute”.

How the values were obtained:
Experiment in all cases: cells
SNB-75 = type: functional, cell-based, Homo sapiens; details: Homo sapiens, SNB-75;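 further: cell viability assay measuring growth inhibition of human SNB-75 cells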
Description: SANGER: Inhibition of human SNB75 cell growth in a cell viability assay.

D-502MG = type: functional, cell-based, Homo sapiens; details: Homo sapiens, D-502MG
Description: SANGER: Inhibition of human D-502MG cell growth in a cell viability assay.

IST-SL1 = type: functional, cell-based, Homo sapiens; details: Homo sapiens, IST-SL1;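 further: growth inhibition of human IST-SL1 cells, read out with a cell viability assay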
Description: SANGER: Inhibition of human IST-SL1 cell growth in a cell viability assay.

GAK = type: functional, cell-based, Homo sapiens; details: Homo sapiens, GAK;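 further: cell growth inhibition read out by a cell viability assay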
Description: SANGER: Inhibition of human GAK cell growth in a cell viability assay.

COR-L88 = type: functional, cell-based, Homo sapiens; details: Homo sapiens, COR-L88;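 further: growth inhibition of COR-L88 cells, read out with a cell viability assay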
Description: SANGER: Inhibition of human COR-L88 cell growth in a cell viability assay.

KG-1 = type: functional, cell-based, Homo sapiens; details: Homo sapiens, KG-1;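 further: growth inhibition of KG-1 cells, read out by a cell viability assay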
Description: SANGER: Inhibition of human KG-1 cell growth in a cell viability assay.

HDLM-2 = type: functional, cell-based, Homo sapiens; details: Homo sapiens, HDLM-2;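 further: cell viability assay measuring suppression of HDLM-2 proliferation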
Description: SANGER: Inhibition of human HDLM-2 cell growth in a cell viability assay.

EW-18 = type: functional, cell-based, Homo sapiens; details: Homo sapiens, EW-18; read-out: IC50;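 further: growth inhibition of EW-18 cells, read out by a cell viability assay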
Description: SANGER: Inhibition of human EW-18 cell growth in a cell viability assay.

MMAC-SF = type: functional, cell-based; details: Homo sapiens;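 further: growth inhibition of human MMAC-SF cells, read out with a cell viability assay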
Description: SANGER: Inhibition of human MMAC-SF cell growth in a cell viability assay.

KGN = type: functional, cell-based, Homo sapiens; details: Homo sapiens, KGN;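 further: growth inhibition of KGN cells, read out with a cell viability assay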
Description: SANGER: Inhibition of human KGN cell growth in a cell viability assay.

ETK-1 = type: functional, cell-based, Homo sapiens; details: Homo sapiens, ETK-1;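 further: growth inhibition of human ETK-1 cells, read out with a cell viability assay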
Description: SANGER: Inhibition of human ETK-1 cell growth in a cell viability assay.

NCI-H226 = type: functional, cell-based, Homo sapiens; details: Homo sapiens, NCI-H226;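 further: cell viability read-out used to gauge growth inhibition of the cells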
Description: SANGER: Inhibition of human NCI-H226 cell growth in a cell viability assay.

UACC-257 = type: functional, cell-based, Homo sapiens; details: Homo sapiens, UACC-257
Description: SANGER: Inhibition of human UACC-257 cell growth in a cell viability assay.

KY821 = type: functional, cell-based, Homo sapiens; details: Homo sapiens, KY821;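 further: growth inhibition of human KY821 cells, read out by a cell viability assay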
Description: SANGER: Inhibition of human KY821 cell growth in a cell viability assay.

IA-LM = type: functional, cell-based; details: Homo sapiens;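 further: cell viability assay measuring growth inhibition of human IA-LM cells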
Description: SANGER: Inhibition of human IA-LM cell growth in a cell viability assay.

COLO-668 = type: functional, cell-based, Homo sapiens; details: Homo sapiens, COLO-668
Description: SANGER: Inhibition of human COLO-668 cell growth in a cell viability assay.

LB2518-MEL = type: functional, cell-based; details: Homo sapiens;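 further: growth inhibition of human LB2518-MEL cells, measured with a cell viability assay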
Description: SANGER: Inhibition of human LB2518-MEL cell growth in a cell viability assay.

J-RT3-T3-5 = type: functional, cell-based, Homo sapiens; details: Homo sapiens, J-RT3-T3-5;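 further: cell viability assay measuring growth inhibition of human J-RT3-T3-5 cells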
Description: SANGER: Inhibition of human J-RT3-T3-5 cell growth in a cell viability assay.

SW 962 = type: functional, cell-based, Homo sapiens; details: Homo sapiens, SW 962;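 further: growth inhibition of human SW962 cells, read out by a cell viability assay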
Description: SANGER: Inhibition of human SW962 cell growth in a cell viability assay.

MZ7-mel = type: functional, cell-based, Homo sapiens; details: Homo sapiens, MZ7-mel;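 further: growth inhibition of human MZ7-mel cells, measured by a cell viability assay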
Description: SANGER: Inhibition of human MZ7-mel cell growth in a cell viability assay.

MN-60 = type: functional, cell-based, Homo sapiens; details: Homo sapiens, MN-60;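 further: growth inhibition of the MN-60 cell line, determined with a cell viability assay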
Description: SANGER: Inhibition of human MN-60 cell growth in a cell viability assay.

MS-1 = type: functional, cell-based, Homo sapiens; details: Homo sapiens, MS-1;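 further: growth inhibition of MS-1 cells, read out by cell viability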
Description: SANGER: Inhibition of human MS-1 cell growth in a cell viability assay.

KU812 cell line = type: functional, cell-based, Homo sapiens; details: Homo sapiens, KU812;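 further: growth inhibition of KU812 cells, read out with a cell viability assay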
Description: SANGER: Inhibition of human KU812 cell growth in a cell viability assay.

no-11 = type: functional, cell-based, Homo sapiens; details: Homo sapiens;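 further: growth inhibition of human NO-11 cells, read out with a cell viability assay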
Description: SANGER: Inhibition of human no-11 cell growth in a cell viability assay.

OCI-AML2 = type: functional, cell-based, Homo sapiens; details: Homo sapiens, OCI-AML2;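 further: growth inhibition of OCI-AML2 cells, read out with a cell viability assay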
Description: SANGER: Inhibition of human OCI-AML2 cell growth in a cell viability assay.

HCC1187 = type: functional, cell-based, Homo sapiens; details: Homo sapiens, HCC1187;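 further: growth inhibition of HCC1187 cells, read out with a cell viability assay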
Description: SANGER: Inhibition of human HCC1187 cell growth in a cell viability assay.

PC-3 = type: functional, cell-based; details: Homo sapiens;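 further: cell viability assay measuring growth inhibition of PC-3 cells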
Description: SANGER: Inhibition of human PC-3 cell growth in a cell viability assay.

NCI-H1355 = type: functional, cell-based, Homo sapiens; details: Homo sapiens, NCI-H1355;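 further: growth inhibition of human NCI-H1355 cells, read out by a cell viability assay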
Description: SANGER: Inhibition of human NCI-H1355 cell growth in a cell viability assay.

GI-ME-N = type: functional, cell-based, Homo sapiens; details: Homo sapiens, GI-ME-N;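 further: growth inhibition of human GI-ME-N cells, read out with a cell viability assay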
Description: SANGER: Inhibition of human GI-ME-N cell growth in a cell viability assay.

HCE-4 = type: functional, cell-based; details: Homo sapiens;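 further: cell viability assay measuring inhibition of growth in the human HCE-4 cell line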
Description: SANGER: Inhibition of human HCE-4 cell growth in a cell viability assay.

NTERA-2-cl-D1 = type: functional, cell-based, Homo sapiens; details: Homo sapiens, NTERA-2-cl-D1;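 further: inhibition of cell growth, measured with a cell viability assay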
Description: SANGER: Inhibition of human NTERA-S-cl-D1 cell growth in a cell viability assay.

KLE = type: functional, cell-based; details: Homo sapiens;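 further: growth inhibition of human KLE cells, read out with a cell viability assay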
Description: SANGER: Inhibition of human KLE cell growth in a cell viability assay.

EM-2 = type: functional, cell-based, Homo sapiens; details: Homo sapiens, EM-2;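 further: growth inhibition of EM-2 cells, read out with a cell viability assay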
Description: SANGER: Inhibition of human EM-2 cell growth in a cell viability assay.

OCUB-M = type: functional, cell-based; details: Homo sapiens;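 further: growth inhibition of the cancer cell line, read out through a cell viability assay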
Description: SANGER: Inhibition of human OCUB-M cell growth in a cell viability assay.

CTV-1 = type: functional, cell-based, Homo sapiens; details: Homo sapiens, CTV-1;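 further: growth inhibition of the cell line, read out with a cell viability assay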
Description: SANGER: Inhibition of human CTV-1 cell growth in a cell viability assay.

U-266 = type: functional, cell-based, Homo sapiens; details: Homo sapiens, U-266
Description: SANGER: Inhibition of human U-266 cell growth in a cell viability assay.

A4-Fuk = type: functional, cell-based, Homo sapiens; details: Homo sapiens, A4-Fuk;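 further: growth inhibition of A4-Fuk cells, read out by a cell viability assay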
Description: SANGER: Inhibition of human A4-Fuk cell growth in a cell viability assay.

NB5 = type: functional, cell-based, Homo sapiens; details: Homo sapiens, NB5;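 further: growth inhibition of NB5 cells, read out as cell viability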
Description: SANGER: Inhibition of human NB5 cell growth in a cell viability assay.

NCI-N87 = type: functional, cell-based; details: Homo sapiens;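 further: growth inhibition of human NCI-N87 cells, read out with a cell viability assay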
Description: SANGER: Inhibition of human NCI-N87 cell growth in a cell viability assay.

RXF 393 = type: functional, cell-based, Homo sapiens; details: Homo sapiens, RXF 393;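 further: growth inhibition of human RXF 393 cells, read out with a cell viability assay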
Description: SANGER: Inhibition of human RXF393 cell growth in a cell viability assay.

QIMR-WIL = type: functional, cell-based, Homo sapiens; details: Homo sapiens, QIMR-WIL;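 further: growth inhibition of QIMR-WIL cells, read out with a cell viability assay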
Description: SANGER: Inhibition of human QIMR-WIL cell growth in a cell viability assay.

SNU-C2B = type: functional, cell-based; details: Homo sapiens;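 further: cell viability readout used to measure compound-driven suppression of SNU-C2B cell proliferation, IC50 marking half-maximal growth inhibition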
Description: SANGER: Inhibition of human SNU-C2B cell growth in a cell viability assay.

Ramos-2G6-4C10 = type: functional, cell-based, Homo sapiens; details: Homo sapiens, Ramos-2G6-4C10;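 further: growth inhibition of the cell line, measured by a cell viability read-out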
Description: SANGER: Inhibition of human Ramos-2G6-4C10 cell growth in a cell viability assay.

GI-1 = type: functional, cell-based, Homo sapiens; details: Homo sapiens, GI-1;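 further: growth inhibition of human GI-1 cells, measured with a cell viability readout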
Description: SANGER: Inhibition of human GI-1 cell growth in a cell viability assay.

COLO-800 = type: functional, cell-based, Homo sapiens; details: Homo sapiens, COLO-800;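 further: growth inhibition of COLO-800 cells, read out with a cell viability assay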
Description: SANGER: Inhibition of human COLO-800 cell growth in a cell viability assay.

SH-4 = type: functional, cell-based; details: Homo sapiens;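 further: growth inhibition of SH-4 cells, read out with a cell viability assay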
Description: SANGER: Inhibition of human SH-4 cell growth in a cell viability assay.

HCE-T = type: functional, cell-based, Homo sapiens; details: Homo sapiens, HCE-T;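 further: cell viability assay read-out, reporting inhibition of HCE-T cell growth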
Description: SANGER: Inhibition of human HCE-T cell growth in a cell viability assay.

KM12 = type: functional, cell-based, Homo sapiens; details: Homo sapiens, KM12;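 further: KM12 cell growth inhibition, read out with a cell viability assay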
Description: SANGER: Inhibition of human KM12 cell growth in a cell viability assay.

KURAMOCHI = type: functional, cell-based, Homo sapiens; details: Homo sapiens, KURAMOCHI;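 further: growth inhibition of KURAMOCHI cells, read out with a cell viability assay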
Description: SANGER: Inhibition of human KURAMOCHI cell growth in a cell viability assay.

OVCAR-4 = type: functional, cell-based, Homo sapiens; details: Homo sapiens, OVCAR-4;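 further: growth inhibition of human OVCAR-4 cells, measured with a cell viability assay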
Description: SANGER: Inhibition of human OVCAR-4 cell growth in a cell viability assay.

LXF-289 cell line = type: functional, cell-based; details: Homo sapiens
Description: SANGER: Inhibition of human LXF-289 cell growth in a cell viability assay.

In the case of `O=C1NC(=O)c2c1c(-c1ccccc1Cl)cc1[nH]c3ccc(O)cc3c21`, the IC50 (SNB-75) is reported as greater than 2 µM, the IC50 (D-502MG) is reported as greater than 2 µM and the IC50 (IST-SL1) is reported as 1.46 µM. It also gave an IC50 (GAK) greater than 2 µM, an IC50 (COR-L88) of 1.56 µM and an IC50 (KG-1) of 0.862 µM. It also gave an IC50 (HDLM-2) greater than 2 µM, an IC50 (EW-18) greater than 2 µM and an IC50 (MMAC-SF) greater than 2 µM. It also gave an IC50 (KGN) of 1.68 µM, an IC50 (ETK-1) greater than 2 µM and an IC50 (NCI-H226) greater than 2 µM. It also gave an IC50 (UACC-257) greater than 2 µM, an IC50 (KY821) greater than 2 µM and an IC50 (IA-LM) greater than 2 µM. It also gave an IC50 (COLO-668) greater than 2 µM, an IC50 (LB2518-MEL) greater than 2 µM and an IC50 (J-RT3-T3-5) of 1.58 µM. It also gave an IC50 (SW 962) greater than 2 µM, an IC50 (MZ7-mel) greater than 2 µM and an IC50 (MN-60) of 1.2 µM. For the same molecule, the IC50 (MS-1) was 0.771 µM, the IC50 (KU812 cell line) was greater than 2 µM and the IC50 (no-11) was greater than 2 µM. It also gave an IC50 (OCI-AML2) greater than 2 µM, an IC50 (HCC1187) greater than 2 µM and an IC50 (PC-3) greater than 2 µM. For the same molecule, the IC50 (NCI-H1355) was greater than 2 µM, the IC50 (GI-ME-N) was 1.53 µM and the IC50 (HCE-4) was greater than 2 µM. For the same molecule, the IC50 (NTERA-2-cl-D1) was greater than 2 µM, the IC50 (KLE) was greater than 2 µM and the IC50 (EM-2) was 1.33 µM. It also gave an IC50 (OCUB-M) greater than 2 µM, an IC50 (CTV-1) greater than 2 µM and an IC50 (U-266) greater than 2 µM. The IC50 (A4-Fuk) was greater than 2 µM, the IC50 (NB5) was greater than 2 µM and the IC50 (NCI-N87) was greater than 2 µM. For the same molecule, the IC50 (RXF 393) was greater than 2 µM, the IC50 (QIMR-WIL) was 0.135 µM and the IC50 (SNU-C2B) was greater than 2 µM. It also gave an IC50 (Ramos-2G6-4C10) of 0.61 µM, an IC50 (GI-1) greater than 2 µM and an IC50 (COLO-800) greater than 2 µM. For the same molecule, the IC50 (SH-4) was 1.65 µM, the IC50 (HCE-T) was greater than 2 µM and the IC50 (KM12) was greater than 2 µM. For the same molecule, the IC50 (KURAMOCHI) was greater than 2 µM.

`NC(=O)Nc1cc(-c2cccc(F)c2)sc1C(=O)N[C@H]1CCCNC1` [AZD-7762] gave an IC50 (SNB-75) of 1.2 µM, an IC50 (D-502MG) greater than 2 µM and an IC50 (IST-SL1) of 0.628 µM. It also gave an IC50 (GAK) of 1.05 µM, an IC50 (COR-L88) of 0.365 µM and an IC50 (KG-1) of 0.845 µM. It also gave an IC50 (HDLM-2) of 0.813 µM, an IC50 (EW-18) of 1.6 µM and an IC50 (MMAC-SF) greater than 2 µM. For the same molecule, the IC50 (KGN) was 1.23 µM, the IC50 (ETK-1) was 0.637 µM and the IC50 (NCI-H226) was greater than 2 µM. For the same molecule, the IC50 (UACC-257) was greater than 2 µM, the IC50 (KY821) was 0.214 µM and the IC50 (IA-LM) was 1.4 µM. The IC50 (COLO-668) was greater than 2 µM, the IC50 (LB2518-MEL) was greater than 2 µM and the IC50 (J-RT3-T3-5) was 0.267 µM. For the same molecule, the IC50 (SW 962) was greater than 2 µM, the IC50 (MZ7-mel) was 0.347 µM and the IC50 (OVCAR-4) was 0.32 µM. The IC50 (MN-60) was 0.721 µM, the IC50 (MS-1) was greater than 2 µM and the IC50 (KU812 cell line) was 0.168 µM. The IC50 (no-11) was 1.49 µM, the IC50 (OCI-AML2) was 1.27 µM and the IC50 (HCC1187) was 0.967 µM. For the same molecule, the IC50 (PC-3) was greater than 2 µM, the IC50 (NCI-H1355) was 0.679 µM and the IC50 (GI-ME-N) was 0.455 µM. For the same molecule, the IC50 (HCE-4) was 0.97 µM, the IC50 (NTERA-2-cl-D1) was greater than 2 µM and the IC50 (KLE) was greater than 2 µM. The IC50 (EM-2) was 0.099 µM, the IC50 (OCUB-M) was greater than 2 µM and the IC50 (CTV-1) was 0.039 µM. It also gave an IC50 (U-266) of 0.763 µM, an IC50 (A4-Fuk) of 0.0749 µM and an IC50 (NB5) of 0.797 µM. The IC50 (NCI-N87) was 0.846 µM, the IC50 (RXF 393) was 0.29 µM and the IC50 (QIMR-WIL) was 0.163 µM. It also gave an IC50 (SNU-C2B) of 0.281 µM, an IC50 (Ramos-2G6-4C10) of 0.148 µM and an IC50 (GI-1) of 0.196 µM. It also gave an IC50 (COLO-800) of 0.603 µM, an IC50 (SH-4) greater than 2 µM and an IC50 (HCE-T) of 0.442 µM. For the same molecule, the IC50 (LXF-289 cell line) was 0.676 µM, the IC50 (KM12) was 0.0516 µM and the IC50 (KURAMOCHI) was greater than 2 µM.
